Test results as given in PMC6988596 (Chemical Science, 2019).

Biological target: LeuS (Escherichia coli, UniProt P07813)
Experiment: HAMA hydroxamate LC-MS/MS competition assay
Assay type: biochemical
Settings: amino acid mixture

Compound: CC(C)C[C@H](N)C(=O)O [L-Leu]
- HAMA hydroxamate LC-MS/MS competition assay: all three specificities were correctly identified and almost no side-activities detected
